Values quoted from earlier work as cited in patent publication US20080166423A1, “Combination Medication for Treating the Effects of Stomach Acid Reduction Medication on Bone Integrity” (priority 2007, published 2008).

Details: per day

SMILES: CC(=O)Nc1ccc(O)cc1 [Acetaminophen]
- daily dosage with known liver toxicity: > 4000 mg
